Test results as given in US6784155B1, “Inhibitor and stimulator of stem cell proliferation and uses thereof” (Wellstat Therapeutics Corporation, priority 1996, dated 2004).
Positions of bridges follow the written chain, without caps; N, C: chain ends. No end group written: not given here.

B1: MIP-1α: cytokine macrophage inflammatory protein 1-alpha, previously characterized stem cell inhibitor (protein, UniProt P10147 24-92, looked up)
C-C motif chemokine 3: SLAADTPTACCFSYTSRQIPQNFIADYFETSSQCSKPGVIFLTKRSRQVCADPSEEWVQKYVSDLELSA

Experiments:
[1] = Distribution of ubiquitin fusion proteins between soluble fraction and precipitate of E. coli lysate (SDS-PAGE); assay type: physicochemical; conditions: after centrifugation of the bacterial lysate
Protocol: To obtain protein for assay, 100 ml starter cultures in 250 ml shake flasks were grown from single colonies by overnight incubation (16-20 hours) in 2×YT medium with ampicillin (100 μg/ml), neomycin (10 μg/ml) and 1% glucose. Shaker flask cultures were maintained at 30° C. and 250 rpm in a New Brunswick environmental shaker incubator. The next morning the culture was diluted to liter with medium Cells were induced by IPTG addition to 1 mM (final dilution) at OD600=0.5 and harvested at OD600=0.8 by centrifugation. The harvested cells were resuspended in hypotonic lysis buffer (100 μl of 50 mM Tris, pH 10.0). The bacterial cells were lysed by subjecting the suspension to three cycles of freeze-thaw (dry ice-ethanol bath for freezing and 60° C. for thawing). The suspension was then sonicated for 10 min and centrifuged at 12,000 g for 10 min. The resulting supernatant was designated as “S1”. The cell pellet was resuspended in 50 mM Tris, pH10 and 2×SDS tricine loading buffer (Novex, San Diego, Calif.) (1:1). The mixture was then heated at 95° C. for 15 min and centrifuged at 12,000 g for 10 min. The portion of the precipitate capable of being resolubilized in this manner was called “P1”. The portion of the precipitate derived from the remaining pellet was called “P2”. P2 was resuspended in loading buffer as for P1. Samples from S1, P1 and P2 were analyzed by SDS-PAGE. […]

CFU-MIX [2] = assay: CFU-MIX cycling assay in vitro (Ara C kill); assay type: cell-based, mouse; conditions: Table 19, 100 ng/ml
Protocol: A similar assay can be performed in vitro, using the cycling status of CFU-MIX instead of CFU-S. The assay is performed as described above for the CFU-S assay except that cytosine arabinoside (Ara C, 30 micrograms/ml) is used as the cycle-specific toxic agent instead of high dose tritiated thymidine (see B. I. Lord in Haemopoiesis—A Practical Approach, N. G. Testa and G. Molineux (Eds.), IRL Press 1993; Pragnell et al. in Culture of Hematopoietic Cells, R. I. Freshney, I. B. Pragnell and M. G. Freshney (Eds.), Wiley Liss 1994) and a mouse strain with high endogenous cycling rates (Balb/c) is used instead of testosterone-treated BDFI mice.
(§1) 24 hours later (Day 1), varying doses of peptide 43-55 or vehicle were injected i.v. Bone marrow was harvested on Day 2 and the […] cycling assay conducted as in Example 14. Specifically, mice were sacrificed and single cell bone marrow suspensions prepared from the femurs. The cells were washed once and the concentration adjusted to 5×10^6 cells/ml in Fischer medium. For each test condition, one milliliter of cells was added to each of two polypropylene tubes. The tubes were incubated at 37° C. for 3 hours without (“Control”) or with (“Experimental”) the appropriate concentration of test substance. At the end of the incubation, 30 μg/ml of cytosine arabinoside (“Ara C” (Sigma)) was added to half of the tubes and the same volume of Fischer's medium was added to the others. The tubes were incubated for a further 1 hour at 37° C., after which they were placed on ice and washed twice with cold Fischer medium.
(§2) The cells were readjusted to 5×10^4-10^6/ml in Fischer's medium and 0.5 ml of cell suspension added to 5 ml of Methocult M3430 methylcellulose medium (Stem Cell Technologies, Vancouver, British Columbia). The mixture was vigorously mixed with a vortex and 1 ml was dispensed into each of five 35 mm dishes. The 35 mm dishes were in turn placed in a covered 150 mm dish with one open 35 mm dish containing sterile water. CFU-MIX colonies were counted with the use of an inverted microscope after 7 days of incubation at 37° C.
Differences in colony number between the tubes treated with medium versus the tubes treated with Ara C represent the percentage of cells in cycle under that condition according to the formula:
a=Number of CFU-MIX from tube incubated with medium alone
b=Number of CFU-MIX from tube incubated with Ara C

CFU-GEMM = CFU-GEMM cycling assay, human umbilical cord blood cells; assay type: cell-based; conditions: Table 32, cord blood mononuclear cells
Protocol: In order to investigate the ability of purified INPROL from porcine bone marrow to affect cycling on human progenitors, umbilical cord blood cells were obtained. Either the total mononuclear cell fraction obtained after separation on Ficoll or the CD34^+ fraction obtained after fractionation on anti-CD34 affinity columns (CellPro Inc.) was used. Cells were incubated for 48 hours in vitro in the presence of interleukin 3 (IL-3) and stem cell factor (SCF) (100 ng/ml each) in order to ensure that the early stem cells were in cycle. After this preincubation, cycling assays were conducted as described in Example 14 for the mouse except that CFU-GEMM (instead of CFU-MIX) were counted on Day 18 after plating.
The human cord blood CFU-GEMM cycling assay was conducted as in Example 19. Specifically, mononuclear cells were isolated from human umbilical cord blood cells and adjusted to 24×10^4 cells/ml in IMDM tissue culture medium supplemented with 10% FBS, 100 ng/ml kit ligand and 100 ng/ml human IL-3. The cells were incubated for 48 hours at 37° C.
After incubation, cells were washed and resuspended in serun-free NDM at a concentration of 10^6 cells/ml. One ml of cells was added to each of two polypropylene tubes per condition and the cycling assay conducted as in Example 24 for mouse bone marrow. After the Ara C incubation cells were washed with cold NDM and adjusted to 10,000 to 20,000 cells per 0.5 ml IMDM and mixed with 5 ml Methocult H4433 (Stem Cell Technologies). Alternatively, Methocult H4435 methylcellulose medium (Stem Cell Technologies) was used in which case the cell concentration was adjusted to 2500-5000 cells per 0.5 ml IMDM. The cells were plated as in Example 24 and CFU-GEMM colonies scored on days 14-18.

CFU-MIX [3] = assay: CFU-MIX cycling assay after in vivo injection into testosterone or 5FU treated mice; parameters: species or system mouse; conditions: Table 23, 5FU-pretreated animals, 0.5 ng i.v. per 20 gram mouse
Protocol: In order to test the ability of purified porcine hemoglobin chains to act in vivo, BDF1 mice were injected with testosterone propionate as described in Example 1. Twenty four hours later, mice received 500 ng of either pINPROL, porcine hemoglobin alpha chain (purified from peripheral red blood cells as in FIG. 21), porcine beta chain (purified from peripheral red blood cells as in FIG. 21) or the equivalent volume of carrier intravenously. Forty eight hours later the bone marrow from each mouse was harvested and the CFU-MIX assay conducted as described in Example 14.
To assess the stem cell inhibitory activity of peptide 43-55 in vivo, B6D2 F1 mice were pre-treated with testosterone propionate as described in Example 1 or with 5FU. Specifically, testosterone propionate (100 mg/kg body weight) was injected i.p. on Day 0 into mice. Alternatively, mice were injected on Day 0 with 5FU ([…] body weight).
as §1, §2
Differences in colony number between the tubes treated with medium versus the tubes treated with Ara C represent the percentage of cells in cycle under that condition according to the formula: […]

CFU-S = CFU-S proliferation assay, 3H-Thymidine suicide method (bone marrow incubated with test fractions); assay type: cell-based, mouse; conditions: Table 8, bone marrow from testosterone treated mice
Protocol: For the detection of stem cells proliferation the number of CFU-S in S-phase of the cell cycle was measured by the ^3H-Thymidine “suicide” method (Becker et al., Blood 26:296-308, 1965).
Immature hematopoietic progenitors-Colony Forming Units in spleen (CFU-S)—can be detected in vivo by forming macroscopic colonies in the spleens of lethally irradiated mice, 8-12 days after the intravenous injection of hematopoietic cells (Till & McCulloch, 1961).
For the standard CFU-S proliferation assay the method of ^3H-Thymidine “suicide” is usually applied (Becker et al., 1965). The method is based on incorporation of radiolabelled Thymidine, (^3H-Thymidine) a precursor of DNA into cells during DNA synthesis. The CFU-S which are in S-phase of the cycle at the time of testing, are killed by the high radioactivity and therefore not able to form colonies in spleen.
The inhibitor testing can not be done with the bone marrow stem cell population from unstimulated animals, as far as the inhibitor only effects cycling CFU-S, which are as low as 7-10% of the total CFU-S population in the bone marrow of normal mice.
To stimulate CFU-S proliferation, phenylhydrazine (PHZ), or sublethal irradiation were used (Lord, 1976).
The TSP induced stimulation of CFU-S proliferation within 20-24 hours after injection and the effect could be seen for at least 7 days.
The procedure used for the screening of the fractions during purification of the Inhibitor was as follows:
Mice: BDF1 or CBF1 mice strains were used throughout all testing.
Donor mice were treated with a 10 mg/100 g dose of TSP by intraperitoneal injection of 0.2 ml/mouse in order to induce 30-35% of the CFU-S into S-phase.
Twenty-four hours later the bone marrow is taken from the femurs for the cell suspension preparation. […]
Recipient spleens are harvested on day 9-12 and fixed in Tellesnitsky's solution; the colonies are scored by eye score. The percentage of cells in S-phase are calculated using the formula. […]

HPP-CFC = HPP-CFC assay after 4 hour pre-incubation; assay type: cell-based, mouse; conditions: 200 ng/ml, day 14
Protocol: An in vitro assay for assessing murine reconstituting stem cells and early precursors is the high proliferative potential colony ([…]) assay; other related assays, e.g., CFU-A, CFU-GM, CFU-E, and CFU-GEMM, detect progressively restricted progenitor populations (M. Moore, Blood […]:2122-2128, 1991).
BDF1 mice were treated with 5-fluorouracil (200 mg/kg i.p.) before their bone marrow was assayed for HPP-CFC numbers. Cells were washed by centrifugation and incubated at densities of 10^6 to 5×10^6/ml in medium with either no added agent (Controls), pINPROL (25 ng/ml) or MIP-1α (200 ng/ml) for 4 hours. After incubation, cells were washed and plated in agar (0.3%) with 30% FCS and combined conditioned medium from 5637 and WEHI-3B cell lines (7.5% of each conditioned medium, as recommended by Sharp et al., 1991). Plating concentration was 5×10^4 cells/ml in 60 mm dishes.

mouse bone marrow cells = assay: Colony formation after pre-incubation of bone marrow cells from 5FU-treated mice; assay type: cell-based; conditions: 4 hours pre-incubation
Protocol: The purpose of this experiment was to compare the inhibitory effects of pre-incubation with pINPROL and MIP-1α on mouse bone marrow cells in vitro.
The following procedure was used:
in vivo: BDF1 mice, 6-15 weeks of age, are injected with 200 mg/kg 5FU i.p. 48 hours before harvesting marrow from the femurs.
in vitro: A single cell pooled suspension is counted and 5×10^6 cells are incubated in a total of 2 mls with or without pINPROL or MIP-1α, with 5% horse serum, IMDM media with added L-glutamine, at 37° C. and 5% CO2 for 4 hours. The cells are then washed twice and recounted. They are plated in methylcellulose in the following final conditions:
20 ng/ml recombinant murine IL-3
Plates were incubated for 11 days at 37° C. and 5% CO2 in 100% humidity. Colonies more than 50 cells were counted.

Molecule | fraction of bacterial lysate containing the peptide [1] | % Kill (CFU-MIX [2]) | % Kill (CFU-GEMM; 1 ng/ml) | % Kill (CFU-GEMM; 10 ng) | % Kill (CFU-GEMM; 100 ng/ml) | % Kill (CFU-MIX [3]) | % Kill (CFU-S; 40 ng/ml) | % Kill (CFU-S; 200 ng/ml) | % of Control (HPP-CFC) | HPP-CFU (HPP-CFC) | Percent of Control (mouse bone marrow cells; colonies after 11 days) | Colony Number (mouse bone marrow cells; colonies more than 50 cells after 11 days)
Cys-Phe-Pro-His-Phe-Asp-Leu-Ser-His-Gly-Ser-Ala-Gln-Val-Cys (CFPHFDLSHGSAQVC; disulfide 1-15 (inferred)) [Cyclic Peptide 43-55, cyclic derivative of the 43-55 peptide] | contained in the soluble fraction | 0% | 32% | 0% | 11% | 14% |  |  |  |  |  | 
Hbg: C4 Reverse-phase purified porcine hemoglobin beta chain (derived from 2X crystallized pig hemoglobin) |  |  |  |  |  |  | 7% | 25% |  |  |  | 
B1 |  |  |  |  |  |  |  | 13% | 101% | 15.8 ± 0.9 | 114% | 35.25
